{"source": "patent US20210353749A1", "about": "“GUANABENZ AS AN ADJUVANT FOR IMMUNOTHERAPY” (UNIVERSITÉ CATHOLIQUE DE LOUVAIN, priority 2018, published 2021)", "key": {"[1]": {"system": "Mouse TCRP1A CD8+ T cells", "assay": "CD107 cytotoxicity assay (degranulation assay), mouse T cells", "type": "cell-based", "settings": "alprenolol 5 μM or 20 μM, 16 hours, vs control (PBS); FIG. 11A", "experimental": "Mouse TCRP1A CD8^+ T cells: P1A-specific (TCRP1A) CD8^+ T cells were isolated from spleens and lymph nodes of TCRP1A mice using anti-mouse CD8a (Ly-2) MicroBeads (Miltenyi Biotec).\nCD107 cytotoxicity assay (Degranulation assay): TCRP1A CD8^+ T cells were plated at 50,000 cells per well in a 96 U plate with different concentrations of guanabenz and incubated at 37° C. overnight prior to their use in the assay on the next day. On the day of the assay, the culture supernatant was removed from the cells and the cells were washed once with complete medium to remove the drug. The target cells L1210-P1A-B7.1 were added to the wells at a ratio of 1:1. Control wells containing either only T cells or target cells were also included for each plate. CD107a-APC was added to each well at the same time as addition of the target cells. The plate was then incubated at 37° C. for 90 minutes. At the end of the incubation period the cells were harvested and washed once with PBS. They were stained with anti-mouse CD8-Bv421 antibody for 15 minutes. The cells were then washed and resuspended in PBS and analyzed using FACS Fortessa flow cytometer. Human CD8^+ T cell degranulation was evaluated in a similar way. To induce CD8^+ T cell degranulation, T2 cells loaded with synthetic WT1126-134 peptide (10^6 T2 cells were incubated for 1 hour in 200 μL Optimem medium with 100 μmol/L synthetic peptide at 37° C.) were used as target cells.\n(§1) T cells were incubated with guanabenz (10, 20, or 40 μM) for 16 h to 24 h as indicated. Mice received a daily intra-peritoneal injection of guanabenz (5 mg/kg) or vehicle (PBS) from the day of randomization (and the day of ACT when applicable) until the day of sacrifice.\nCD107 cytotoxicity assay (Degranulation assay): the assay was carried out as described hereinabove (see Example 1) with different 20 μM guanabenz or different concentrations of alprenolol or sunitinib, as indicated.\nT cells were incubated with 20 μM guanabenz for 16 h as indicated.\nT cells were incubated with alprenolol (5 or 20 μM) for 16 h as indicated. […]"}, "TiRP tumor": {"system": "TiRP tumor", "assay": "TiRP melanoma model with adoptive cell transfer of activated P1A-specific CD8+ T cells", "type": "in vivo, mouse", "settings": "alprenolol 5 mg/kg i.p. daily with ACT", "text": "TiRP mice: TiRP mice have been created by crossing Ink4a/Arf^flox/flox mice with mice carrying a transgenic construct controlled by the tyrosinase promoter and driving the expression of H-Ras^12V and Trap1a which encodes a MAGE-type tumor antigen P1A; the promoter is separated from the coding region by a stop cassette made of a floxed self-deleting CreER (Huijbers et al., 2006, Cancer Res 66, 3278-3286). Those mice were backcrossed to a B10.D2 background and bred to homozygosity. TCRP1A mice heterozygous for the H-2Ld/P1A35-43-specific TCR transgene were kept on the B10.D2; Rag1^−/− background (Shanker et al., 2004, J Immunol 172, 5069-5077). All mice used in this study were produced under specific pathogen free (SPF) conditions at the animal facility of the Ludwig Institute for Cancer Research. All the rules concerning animal welfare have been respected according to the 2010/63/EU Directive. All procedures were performed with the approval of the local Animal Ethical Committee, with reference 2015/UCL/MD/15.\nA fresh solution of 40H-Tamoxifen was prepared by dissolving 40H-Tamoxifen (Imaginechem) in 100% ethanol and mineral oil (ratio 1:9) followed by 30-min sonication, and injected subcutaneously (2 mg/200 μL per mouse) in the neck area of gender-matched 7 weeks old TiRP mice. Tumor appearance was monitored daily and tumors were measured three times/week. Tumor volume (in mm^3) was calculated by the following formula: Volume=width^2×length/2. Tumor-bearing TiRP mice were randomized based on the tumor size when average volume was 400 mm^3, 500 mm^3 or 1000 mm^3 as indicated.\nas §1\nFor the adoptive cell transfer (ACT), P1A-specific (TCRP1A) CD8^+ T cells were isolated from spleens and lymph nodes of TCRP1A mice as described hereinabove, and stimulated in vitro by co-culture with irradiated (10.000 rads) L1210-P1A-B7.1 cells (Gajewski et al., 1995, J Immunol 154, 5637-5648) at 1:2 ratio (0.5×10^5 CD8^+ T cells and 10^5 L1210-P1A-B7.1 cells per well in 48-well plates) in IMDM (GIBCO) containing 10% fetal bovine serum supplemented with L-arginine (0.55 mM, Merck), L-asparagine (0.24 mM, Merck), glutamine (1.5 mM, Merck), betamercaptoethanol (50 μM, Sigma), 50 UmL^−1 penicillin and […] (Life Technologies). Four days later, TCRP1A CD8^+ T cells were purified on a Lymphoprep gradient (StemCell) and 10^7 living cells were injected intravenously in 200 μL PBS in TiRP-tumor bearing mice on the day of randomization.\nMice received a daily intra-peritoneal injection of alprenolol (5 mg/kg) or vehicle (PBS) from the day of ACT until the day of sacrifice.\nT cells were incubated with sunitinib (0.1, 0.3, 0.8, 2.5 or 4 μM) for 16 h as indicated. Mice received a daily dose of sunitinib (20 mg/kg) or vehicle (PBS) by oral gavage from the day of ACT until the day of sacrifice."}}, "data": [{"compound": "C=CCc1ccccc1OCC(O)CNC(C)C", "note": "(stereo not drawn) [alprenolol]", "values": [{"measurement": "T cell degranulation (FACS detection of CD107a)", "setting": "[1]", "result": "did no significantly increase"}, {"measurement": "tumor infiltration of CD8+ T cells (tetramer+ CD8+ T cells among total CD45+ cells)", "setting": "TiRP tumor; 7 days after ACT, FIG. 11C", "result": "not increased"}, {"measurement": "tumor growth", "setting": "TiRP tumor; day 0 to day 10, vs ACT alone, FIG. 11B", "result": "not significantly decreased"}]}]}
